Measured values from patent US20250302815A1, “PROTEIN TYROSINE PHOSPHATASE TARGETING LIGANDS” (CALICO LIFE SCIENCES LLC, priority 2021, published 2025).

Columns and labels:
PTPN2 (B16F10.4 cells) = target: T1, PTPN2 (B16F10.4 cells) (Mus musculus, UniProt Q06180); experiment: HiBiT Degradation B16F10.4 PTPN2; type: cell-based; details: 24.0 hours
T1 construct: HiBiT; host or cells: B16F10.4
T1 sequence (Q06180 1-406): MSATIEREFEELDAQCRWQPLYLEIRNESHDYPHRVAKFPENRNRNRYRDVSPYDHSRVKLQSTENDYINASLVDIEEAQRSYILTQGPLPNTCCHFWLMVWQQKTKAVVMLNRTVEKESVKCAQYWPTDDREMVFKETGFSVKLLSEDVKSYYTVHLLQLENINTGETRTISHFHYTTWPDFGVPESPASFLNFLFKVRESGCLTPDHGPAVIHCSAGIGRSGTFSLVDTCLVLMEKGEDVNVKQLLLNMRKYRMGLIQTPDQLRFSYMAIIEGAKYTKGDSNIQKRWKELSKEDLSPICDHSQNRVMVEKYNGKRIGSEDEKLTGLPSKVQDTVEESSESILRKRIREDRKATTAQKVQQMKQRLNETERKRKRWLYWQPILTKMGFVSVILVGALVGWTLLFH

[1] = target: T2, PTPN2 (HiBIT-PTPN2 in 293T.109 cells) (Homo sapiens, UniProt P17706); experiment: HiBiT Degradation 293T.109 PTPN2 (Nano-Glo HiBiT Lytic Assay); type: cell-based; details: 24.0 hours
T2 construct: expressed in transfected cells; host or cells: 293T.109 (293T WT from ATCC)
T2 sequence (P17706 1-415): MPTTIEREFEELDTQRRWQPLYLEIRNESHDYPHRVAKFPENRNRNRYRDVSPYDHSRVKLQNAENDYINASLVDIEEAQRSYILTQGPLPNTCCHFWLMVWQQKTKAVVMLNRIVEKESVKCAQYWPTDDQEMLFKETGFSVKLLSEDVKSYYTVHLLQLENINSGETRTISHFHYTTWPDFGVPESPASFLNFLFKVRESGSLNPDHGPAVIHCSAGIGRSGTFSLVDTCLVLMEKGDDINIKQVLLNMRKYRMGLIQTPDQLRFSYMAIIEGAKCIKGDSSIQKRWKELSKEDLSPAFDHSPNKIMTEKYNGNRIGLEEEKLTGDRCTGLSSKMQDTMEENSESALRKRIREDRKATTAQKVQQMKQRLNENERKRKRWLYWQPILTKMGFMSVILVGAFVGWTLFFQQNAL
In short: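 Degradation read-out: lytic HiBiT luminescence after 24 h treatment (37 °C, 5% CO2) of 5000 293T cells per well expressing HiBiT-fused PTPN2 from an N-terminal tag. Dosing was 11 points, half-log steps down from 10 μM, in duplicate; vehicle-treated and no-reagent wells served as controls.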

SMILES | DC50 (PTPN2 (B16F10.4 cells)) | DC50 [1]
Cn1c(=O)n(C2CCC(=O)NC2=O)c2ccc(C3CCN(CC(=O)Nc4cccc(CS(=O)(=O)N5CCC(Nc6cccc(-c7sc(C(=O)O)c(OCC(=O)O)c7Cl)c6)CC5(C)C)c4)CC3)cc21 [Example 69, 3-(carboxymethoxy)-4-chloro-5-[3-[[(4S)-1-[[3-[2-[4-[1-(2,6-dioxo-3-piperidyl)-3-methyl-2-oxo-benzimidazol-S-yl]-1-piperidyl]acetyl]amino]phenyl]methylsulfonyl]-2,2-dimethyl-4-piperidyl]amino]phenyl]thiophene-2-carboxylic acid] | 50 to 200 nM | < 50 nM
Cn1c(=O)n(C2CCC(=O)NC2=O)c2ccc(-c3ccc(NC(=O)Nc4cccc(CS(=O)(=O)N5CC[C@H](Nc6cccc(-c7sc(C(=O)O)c(OCC(=O)O)c7Cl)c6)CC5(C)C)c4)cc3)cc21 (stereo partly drawn) [Example 145, 3-(carboxymethoxy)-4-chloro-5-(3-(((4S)-1-((3-(3-(4-(1-(2,6-dioxopiperidin-3-yl)-3-methyl-2-oxo-2,3-dihydro-1H-benzo[d]imidazol-5-yl)phenyl)ureido)benzyl)sulfonyl)-2,2-dimethylpiperidin-4-yl)amino)phenyl)thiophene-2-carboxylic acid] | 50 to 200 nM | 50 to 200 nM
Cn1c(=O)n(C2CCC(=O)NC2=O)c2ccc([C@H]3CC[C@@H](C(=O)Nc4cccc(CS(=O)(=O)N5CC[C@H](Nc6cccc(-c7sc(C(=O)O)c(OCC(=O)O)c7Cl)c6)CC5(C)C)c4)CC3)cc21 (stereo partly drawn) [Example 139, 3-(carboxymethoxy)-4-chloro-5-(3-(((4S)-1-((3-((1s,4R)-4-(1-(2,6-dioxopiperidin-3-yl)-3-methyl-2-oxo-2,3-dihydro-1H-benzo[d]imidazol-5-yl)cyclohexane-1-carboxamido)benzyl)sulfonyl)-2,2-dimethylpiperidin-4-yl)amino)phenyl)thiophene-2-carboxylic acid] | 50 to 200 nM | < 50 nM
CC(C)(c1cccc(NC(=O)CCCCCCNC(=O)CNc2cccc3c2CN(C2CCC(=O)NC2=O)C3=O)c1)S(=O)(=O)N1CCC(Nc2cccc(-c3sc(C(=O)O)c(OCC(=O)O)c3Cl)c2)CC1 (stereo not shown) [Example 40, 3-(carboxymethoxy)-4-chloro-5-[3-[[1-[1-[3-[7-[[2-[[2-(2,6-dioxo-3-piperidyl)-1-oxo-isoindolin-4-yl]amino]acetyl]amino]heptanoylamino]phenyl]-1-methyl-ethyl]sulfonyl-4-piperidyl]amino]phenyl]thiophene-2-carboxylic acid] | ≥ 1000 nM | 200 to 1000 nM
CN(C(=O)CCN1CCC(Nc2cccc3c2CN(C2CCC(=O)NC2=O)C3=O)CC1)c1cccc(CS(=O)(=O)N2CCC(Nc3cccc(-c4sc(C(=O)O)c(OCC(=O)O)c4Cl)c3)CC2(C)C)c1 (stereo not shown) [Example 71, 3-(carboxymethoxy)-4-chloro-5-(3-((1-((3-(3-(4-((2-(2,6-dioxopiperidin-3-yl)-1-oxoisoindolin-4-yl)amino)piperidin-1-yl)-N-methylpropanamido)benzyl)sulfonyl)-2,2-dimethylpiperidin-4-yl)amino)phenyl)thiophene-2-carboxylic acid] | ≥ 1000 nM | 50 to 200 nM
Cn1c(=O)n(C2CCC(=O)NC2=O)c2ccc(C3CCN(C(=O)Nc4cc(CS(=O)(=O)N5CC[C@@H](Nc6cccc(-c7sc(C(=O)O)c(OCC(=O)O)c7Cl)c6)CC5(C)C)ccc4F)CC3)cc21 (stereo partly shown) [Example 120] | < 50 nM | 50 to 200 nM
CC1(C)C[C@@H](Nc2cccc(-c3sc(C(=O)O)c(OCC(=O)O)c3Cl)c2)CCN1S(=O)(=O)Cc1cccc(NC(=O)N2CCC(c3ccc4c5c(cccc35)C(=O)N4C3CCC(=O)NC3=O)CC2)c1 (stereo partly drawn) [Example 82, 3-(carboxymethoxy)-4-chloro-5-[3-[[(4S)-1-[[3-[[4-[1-(2,6-dioxo-3-piperidyl)-2-oxo-benzo[cd]indol-6-yl]piperidine-1-carbonyl]amino]phenyl]methylsulfonyl]-2,2-dimethyl-4-piperidyl]amino]phenyl]thiophene-2-carboxylic acid] | < 50 nM | < 50 nM

Now from value to molecule:

DC50 (PTPN2 (B16F10.4 cells)) | DC50 [1] | SMILES
200 to 1000 nM | 200 to 1000 nM | O=C(O)COc1c(C(=O)O)sc(-c2cccc(NC3CCN(S(=O)(=O)Cc4cccc(NC(=O)CCc5ccc6c(c5)CN(C5CCC(=O)NC5=O)C6=O)c4)CC3)c2)c1Cl (stereo not shown) [Example 47]
200 to 1000 nM | 200 to 1000 nM | CC1(C)C[C@@H](Nc2cccc(-c3sc(C(=O)O)c(OCC(=O)O)c3Cl)c2)CCN1S(=O)(=O)Cc1cccc(NC(=O)C2C[C@@H]3CN(C(=O)COc4cccc5c4CN(C4CCC(=O)NC4=O)C5=O)C[C@@H]3C2)c1 (stereo partly shown) [Example 100]
< 50 nM | 200 to 1000 nM | Cn1nc(C2CCC(=O)NC2=O)c2ccc(C3CCN(C(=O)Nc4cccc(CS(=O)(=O)N5CC[C@@H](Nc6cccc(-c7sc(C(=O)O)c(OCC(=O)O)c7Cl)c6)CC5(C)C)c4)CC3(F)F)cc21 (stereo partly drawn) [Example 185, 3-(carboxymethoxy)-4-chloro-5-(3-(((4R)-1-((3-(4-(3-(2,6-dioxopiperidin-3-yl)-1-methyl-1H-indazol-6-yl)-3,3-difluoropiperidine-1-carboxamido)benzyl)sulfonyl)-2,2-dimethylpiperidin-4-yl)amino)phenyl)thiophene-2-carboxylic acid]
≥ 1000 nM | 200 to 1000 nM | CC1(C)C[C@@H](Nc2cccc(-c3sc(C(=O)O)c(OCC(=O)O)c3Cl)c2)CCN1S(=O)(=O)Cc1cccc(NC(=O)N2CCC(C(=O)NCc3cccc4c3CN(C3CCC(=O)NC3=O)C4=O)CC2)c1 (stereo partly drawn) [Example 84, 3-(carboxymethoxy)-4-chloro-5-[3-[[(4S)-1-[[3-[[4-[[2-(2,6-dioxo-3-piperidyl)-1-oxo-isoindolin-4-yl]methylcarbamoyl]piperidine-1-carbonyl]amino]phenyl]methylsulfonyl]-2,2-dimethyl-4-piperidyl]amino]phenyl]thiophene-2-carboxylic acid]
50 to 200 nM | 200 to 1000 nM | Cn1c(=O)n(C2CCC(=O)NC2=O)c2ccc([C@H]3CN(C(=O)Nc4cccc(CS(=O)(=O)N5CC[C@H](Nc6cccc(-c7sc(C(=O)O)c(OCC(=O)O)c7Cl)c6)CC5(C)C)c4)CC[C@@H]3F)cc21 (stereo partly drawn) [Example 214, 3-(carboxymethoxy)-4-chloro-5-[3-[[(4S)-1-[[3-[[(3S,4S)-3-[1-(2,6-dioxo-3-piperidyl)-3-methyl-2-oxo-benzimidazol-5-yl]-4-fluoro-piperidine-1-carbonyl]amino]phenyl]methylsulfonyl]-2,2-dimethyl-4-piperidyl]amino]phenyl]thiophene-2-carboxylic acid]
50 to 200 nM | 200 to 1000 nM | CC1(C)C[C@H](Nc2cccc(-c3sc(C(=O)O)c(OCC(=O)O)c3Cl)c2)CCN1S(=O)(=O)Cc1cccc(NC(=O)N2CCC(c3ccc4c(c3)n(C3COC3)c(=O)n4C3CCC(=O)NC3=O)CC2)c1 (stereo partly drawn) [Example 206, 3-(carboxymethoxy)-4-chloro-5-(3-(((4R)-1-((3-(4-(1-(2,6-dioxopiperidin-3-yl)-3-(oxetan-3-yl)-2-oxo-2,3-dihydro-1H-benzo[d]imidazol-5-yl)piperidine-1-carboxamido)benzyl)sulfonyl)-2,2-dimethylpiperidin-4-yl)amino)phenyl)thiophene-2-carboxylic acid]
≥ 1000 nM | ≥ 1000 nM | CC1(C)C[C@@H](Nc2cccc(-c3sc(C(=O)O)c(OCC(=O)O)c3Cl)c2)CCN1S(=O)(=O)Cc1cccc(NC(=O)CCN2CCC(Oc3cccc4c3CN(C3CCC(=O)NC3=O)C4=O)CC2)c1 (stereo partly shown) [Example 56]
